*1 amine or outer side, *2 acyl side, *3 side chain or, on linkers, in order; H or OH if unused. Where a SMILES comes first, the peptide text is derived from it. Side-chain parts run from the residue outwards. [ ]: non-standard residue; d: D form. The star is where a group is joined. C20 diacid = O=C(O)CCCCCCCCCCCCCCCCCCC(=O)*; C18 diacid = O=C(O)CCCCCCCCCCCCCCCCC(=O)*; γGlu = O=C(O)[C@H](CCC(=O)[*:2])N[*:1]; Pentanoyl = CCCCC(=O)*; AEEA = NCCOCCOCC(=O)O; Aib = CC(C)(N)C(=O)O
Key:
human CRF2a receptor = biological target: T1, human CRF2a receptor (Homo sapiens, UniProt Q13324); assay: Activity at human CRF2a receptor, cAMP functional assay in TeloHEAC cells; assay type: cell-based; settings: TeloHEAC cells stably expressing human CRF2a receptor, relative to urocortin 2 (100 nM = 100%)
T1 construct: expressed in transfected cells; host or cells: TeloHEAC cells
T1 sequence (Q13324 1-411): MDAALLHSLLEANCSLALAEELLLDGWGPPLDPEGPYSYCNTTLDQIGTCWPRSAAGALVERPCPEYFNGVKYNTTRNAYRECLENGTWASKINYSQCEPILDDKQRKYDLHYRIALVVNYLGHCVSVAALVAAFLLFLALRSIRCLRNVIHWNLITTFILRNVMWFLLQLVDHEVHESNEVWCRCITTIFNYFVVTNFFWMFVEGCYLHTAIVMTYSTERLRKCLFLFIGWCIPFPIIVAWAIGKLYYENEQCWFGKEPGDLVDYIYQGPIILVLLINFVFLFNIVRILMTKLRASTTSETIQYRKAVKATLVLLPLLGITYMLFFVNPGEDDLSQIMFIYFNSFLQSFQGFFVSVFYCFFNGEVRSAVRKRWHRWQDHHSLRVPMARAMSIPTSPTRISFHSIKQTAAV
In short: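 TeloHEAC cells stably expressing human CRF2a (10000 cells/well) were treated with 16-point 1:2 compound dilutions in HBSS/20 mM HEPES with IBMX for 30 min at 37° C. cAMP was read by HTRF (665/620 nm ratio). EC50 was the concentration giving 50% activation, with 100 nM urocortin 2 set as 100%.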

CFR1R receptor = biological target: T2, CFR1R receptor (Homo sapiens, UniProt P34998); assay: Activity at anti-target CFR1R receptor, cAMP assay in CRF1R-overexpression CHO-K1 cells; assay type: cell-based; settings: 100% = Sauvagine at 100 nM; for EC50: cAMP
T2 construct: host or cells: CHO-K1 (clone 2)
T2 sequence (P34998 24-415): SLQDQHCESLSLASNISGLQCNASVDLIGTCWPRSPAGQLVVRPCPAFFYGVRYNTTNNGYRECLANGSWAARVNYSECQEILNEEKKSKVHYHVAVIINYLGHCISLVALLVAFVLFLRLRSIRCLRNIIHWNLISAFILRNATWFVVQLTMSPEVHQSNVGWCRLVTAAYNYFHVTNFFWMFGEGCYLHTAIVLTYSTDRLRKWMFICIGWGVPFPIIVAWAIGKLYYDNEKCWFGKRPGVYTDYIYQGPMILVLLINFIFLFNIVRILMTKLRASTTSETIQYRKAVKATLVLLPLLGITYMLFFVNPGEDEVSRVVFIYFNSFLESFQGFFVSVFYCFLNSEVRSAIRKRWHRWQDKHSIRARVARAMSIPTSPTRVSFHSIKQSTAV
In short: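 Uses frozen stocks of CHO-K1 clone 2 cells overexpressing human CRF1R, plated at 4000 cells/well final, with cAMP measured by the same protocol as the TeloHAEC line. Full-activation control: 100 nM Sauvagine.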

[1] = In vitro subcutaneous tissue supernatant (SCts) stability and metabolite identification, rat; assay type: in vitro ADME; parameters: remaining at 2 h: dose or concentration left out as unconfirmed; settings: male, Sprague Dawley; rat subcutaneous tissue supernatant (SCts), 37° C, 2 h
[2] = Chemical stability in buffer (pH 7.4 / pH 4.5), % purity loss; assay type: physicochemical; settings: 40° C. vs 5° C., 14 or 28 days; for Buffer stability pH 7.4 % purity loss: 100 mM phosphate buffer pH 7.4; for Buffer stability pH 4.5 % purity loss: 100 mM acetate buffer pH 4.5
In short: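 LC-UV gave % loss after 14 or 28 days of storage at 5 °C or 40 °C. Samples were diluted supernatants from compound incubated 1 h at room temperature at 10 mg/mL target, in 100 mM acetate pH 4.5 or 100 mM phosphate pH 7.4.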

Sprague Dawley rats = assay: Effect on systolic blood pressure, telemetry in Sprague Dawley rats; assay type: in vivo, rat; settings: 0.1 mg/kg SC; for Systolic blood pressure (Mean) % change from baseline, 8 h / Systolic blood pressure (Mean) % change from baseline, 12 h / Systolic blood pressure (Mean) % change from baseline, 24 h: n=2; for Duration of action: last time point with an effect on BP still observed
In short: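 Values are % change from a 1 h pre-dose baseline in systolic pressure, tracked by telemetry for up to 48 hours after a single 0.1 mg/kg subcutaneous dose. Rats (Sprague Dawley, n=2 per peptide) carried aortic catheters and recovered at least 10 days post-surgery; duration of action marks the last time point still showing an effect.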

[3] = Pharmacokinetics in male Sprague Dawley rats after subcutaneous administration; assay type: in vivo; settings: plasma, rat, IV
[4] = as above; assay type: in vivo; settings: plasma, rat, SC, 0.05 mg/kg

Row | EC50 (human CRF2a receptor) [nM] | Emax (% I) (CFR1R receptor) | EC50 (CFR1R receptor) [nM] | remaining at 2 h [1] [%] | Buffer stability pH 7.4 % purity loss [2] | AUC(0-t) ([3]; 0.05 mg/kg) [ng·h/mL] | half-life ([3]; 0.05 mg/kg) [h] | Buffer stability pH 4.5 % purity loss [2] | AUC(0-t) [4] [ng·h/mL] | Cmax [4] [ng/mL] | Tmax [4] [h] | half-life [4] [h] | AUC(0-t) ([3]; 0.025 mg/kg) [ng·h/mL] | half-life ([3]; 0.025 mg/kg) [h] | Compound | Systolic blood pressure (Mean) % change from baseline, 8 h (Sprague Dawley rats) [%] | Systolic blood pressure (Mean) % change from baseline, 12 h (Sprague Dawley rats) [%] | Systolic blood pressure (Mean) % change from baseline, 24 h (Sprague Dawley rats) [%] | Duration of action (Sprague Dawley rats) [h]
1 | 0.17 | 20 | > 250 | 56 | 0.0/Not Tested % | 2340 | 4.9 |  |  |  |  |  |  |  | CCCCC(=O)N[C@H](C(=O)N[C@@H](CC(C)C)C(=O)N[C@@H](CO)C(=O)N[C@@H](CC(C)C)C(=O)N[C@@H](CC(=O)O)C(=O)N[C@@H](C(=O)N1CCC[C@H]1C(=O)N[C@H](C(=O)N[C@@H](CCCCN)C(=O)N[C@@H](CC(C)C)C(=O)N[C@@H](CCCCNC(=O)CC[C@H](NC(=O)CCCCCCCCCCCCCCCCC(=O)O)C(=O)O)C(=O)N[C@@H](CCCCN)C(=O)N[C@H](C(=O)N[C@@H](CC(C)C)C(=O)N[C@@H](CC(C)C)C(=O)N[C@@H](CCC(=O)O)C(=O)N[C@@H](CCC(N)=O)C(=O)N[C@@H](CCC(=O)O)C(=O)N[C@@H](CCCCN)C(=O)N[C@@H](CCC(N)=O)C(=O)N[C@@H](CCCCN)C(=O)N[C@@H](CCCCN)C(=O)N[C@@H](CCC(N)=O)C(=O)N[C@@H](CCCNC(=N)N)C(=O)N[C@@H](CCC(=O)O)C(=O)N[C@@H](CCC(N)=O)C(=O)N[C@@H](C)C(=O)N[C@@H](CCC(=O)O)C(=O)N[C@H](C(=O)N[C@@H](CC(N)=O)C(=O)NC(C)(C)C(=O)N[C@@H](CCC(N)=O)C(=O)N[C@H](C(=O)N[C@@H](CC(C)C)C(=O)N[C@@H](C)C(=O)N[C@@H](CCC(N)=O)C(=O)N[C@H](C(N)=O)C(C)C)[C@@H](C)CC)[C@@H](C)O)[C@@H](C)CC)[C@@H](C)CC)C(C)C)C(C)C [compound 193] (Pentanoyl-VLSLD[dV]PIKLK([γGlu-C18 diacid])KILLEQEKQKKQREQAETN[Aib]QILAQV-NH2) | −20 | −12 | −8 | >24
2 | 0.43 | 3 | > 250 | 65 | 0.0/0.0 ^ % | 4860 | 6.2 | 0.0/0.0 ^ % |  |  |  |  |  |  | CC[C@H](C)[C@H](NC(C)=O)C(=O)N[C@H](C(=O)N[C@@H](CC(C)C)C(=O)N[C@@H](CO)C(=O)N[C@@H](CC(C)C)C(=O)N[C@@H](CC(=O)O)C(=O)N[C@@H](C(=O)N1CCC[C@H]1C(=O)N[C@H](C(=O)N[C@@H](CCCCN)C(=O)N[C@@H](CC(C)C)C(=O)N[C@@H](CCCCNC(=O)COCCOCCNC(=O)CC[C@H](NC(=O)CCCCCCCCCCCCCCCCC(=O)O)C(=O)O)C(=O)N[C@@H](CCCCN)C(=O)N[C@H](C(=O)N[C@@H](CC(C)C)C(=O)N[C@@H](CC(C)C)C(=O)N[C@@H](CCC(=O)O)C(=O)N[C@@H](CCC(N)=O)C(=O)N[C@@H](CCC(=O)O)C(=O)N[C@@H](CCCCN)C(=O)N[C@@H](CCC(N)=O)C(=O)N[C@@H](CCCCN)C(=O)N[C@@H](CCCCN)C(=O)N[C@@H](CCC(N)=O)C(=O)N[C@@H](CCCNC(=N)N)C(=O)N[C@@H](CCC(=O)O)C(=O)N[C@@H](CCC(N)=O)C(=O)N[C@@H](C)C(=O)N[C@@H](CCC(=O)O)C(=O)N[C@H](C(=O)N[C@@H](CC(N)=O)C(=O)NC(C)(C)C(=O)N[C@@H](CCC(N)=O)C(=O)N[C@H](C(=O)N[C@@H](CC(C)C)C(=O)N[C@@H](C)C(=O)N[C@@H](CCC(N)=O)C(=O)N[C@H](C(N)=O)C(C)C)[C@@H](C)CC)[C@@H](C)O)[C@@H](C)CC)[C@@H](C)CC)C(C)C)C(C)C [compound 203] (Ac-IVLSLD[dV]PIKLK([AEEA-γGlu-C18 diacid])KILLEQEKQKKQREQAETN[Aib]QILAQV-NH2) | −18 | −11 | 2 | 23
3 | 0.14 | 50 |  | 62 | 0.0/Not Tested % |  |  |  | 2890 | 113 | 8 | 12 | 3320 | 7 | CCCCC(=O)N[C@H](C(=O)N[C@@H](CC(C)C)C(=O)N[C@@H](CO)C(=O)N[C@@H](CC(C)C)C(=O)N[C@@H](CC(=O)O)C(=O)N[C@@H](C(=O)N1CCC[C@H]1C(=O)N[C@H](C(=O)N[C@@H](CCCCN)C(=O)N[C@@H](CC(C)C)C(=O)N[C@@H](CCCCNC(=O)CC[C@H](NC(=O)CCCCCCCCCCCCCCCCCCC(=O)O)C(=O)O)C(=O)N[C@@H](CCCCN)C(=O)N[C@H](C(=O)N[C@@H](CC(C)C)C(=O)N[C@@H](CC(C)C)C(=O)N[C@@H](CCC(=O)O)C(=O)N[C@@H](CCC(N)=O)C(=O)N[C@@H](CCC(=O)O)C(=O)N[C@@H](CCCCN)C(=O)N[C@@H](CCC(N)=O)C(=O)N[C@@H](CCCCN)C(=O)N[C@@H](C)C(=O)N[C@@H](CCC(N)=O)C(=O)N[C@@H](CCCNC(=N)N)C(=O)N[C@@H](CCC(=O)O)C(=O)N[C@@H](CCC(N)=O)C(=O)N[C@@H](C)C(=O)N[C@@H](CCC(=O)O)C(=O)N[C@H](C(=O)N[C@@H](CC(N)=O)C(=O)NC(C)(C)C(=O)N[C@@H](CCC(N)=O)C(=O)N[C@H](C(=O)N[C@@H](CC(C)C)C(=O)N[C@@H](C)C(=O)N[C@@H](CCC(N)=O)C(=O)N[C@H](C(N)=O)C(C)C)[C@@H](C)CC)[C@@H](C)O)[C@@H](C)CC)[C@@H](C)CC)C(C)C)C(C)C [compound 222] (Pentanoyl-VLSLD[dV]PIKLK([γGlu-C20 diacid])KILLEQEKQKAQREQAETN[Aib]QILAQV-NH2) |  |  |  | 
4 | 0.16 | 27 | > 250 | 66 | 0.0% |  |  | −1.6% |  |  |  |  | 4510 | 8 | CCCCC(=O)N[C@H](C(=O)N[C@@H](CC(C)C)C(=O)N[C@@H](CO)C(=O)N[C@@H](CC(C)C)C(=O)N[C@@H](CC(=O)O)C(=O)N[C@@H](C(=O)N1CCC[C@H]1C(=O)N[C@H](C(=O)N[C@@H](CCCCN)C(=O)N[C@@H](CC(C)C)C(=O)N[C@@H](CCCCNC(=O)COCCOCCNC(=O)CC[C@H](NC(=O)CCCCCCCCCCCCCCCCCCC(=O)O)C(=O)O)C(=O)N[C@@H](CCCCN)C(=O)N[C@H](C(=O)N[C@@H](CC(C)C)C(=O)N[C@@H](CC(C)C)C(=O)N[C@@H](CCC(=O)O)C(=O)N[C@@H](CCC(N)=O)C(=O)N[C@@H](CCC(=O)O)C(=O)N[C@@H](CCCCN)C(=O)N[C@@H](CCC(N)=O)C(=O)N[C@@H](CCCCN)C(=O)N[C@@H](CCCCN)C(=O)N[C@@H](CCC(N)=O)C(=O)N[C@@H](CCCNC(=N)N)C(=O)N[C@@H](CCC(=O)O)C(=O)N[C@@H](CCC(N)=O)C(=O)N[C@@H](C)C(=O)N[C@@H](CCC(=O)O)C(=O)N[C@H](C(=O)N[C@@H](CC(N)=O)C(=O)NC(C)(C)C(=O)N[C@@H](CCC(N)=O)C(=O)N[C@H](C(=O)N[C@@H](CC(C)C)C(=O)N[C@@H](C)C(=O)N[C@@H](CCC(N)=O)C(=O)N[C@H](C(N)=O)C(C)C)[C@@H](C)CC)[C@@H](C)O)[C@@H](C)CC)[C@@H](C)CC)C(C)C)C(C)C [compound 235] (Pentanoyl-VLSLD[dV]PIKLK([AEEA-γGlu-C20 diacid])KILLEQEKQKKQREQAETN[Aib]QILAQV-NH2) | −8 | −7 | −12 | >24

Reference: patent publication US20260001928A1 (CORTERIA PHARMACEUTICALS, priority 2022, published 2026)
